Patent US6384304B1, “Conditional sterility in wheat” (Plant Genetic Systems N.V., priority 1999, dated 2002)

System: Triticum aestivum plants
Conditions: 0.1% active ingredient, microdroplets on leaf blades, stage 32, outdoor; radioactivity measurements and autoradiography at different time points
Protocol: Plant treatment: The application solution of the formulated test compound was applied in the form of microdroplets by syringe to the blades (adaxial surface) of the fuilly developed leaves. A volume of 20 μl each was applied to the 3rd or 4th leaf of the main shoot and of two tillers per plant (=a total of 60 μl application solution per plant.). Plants were kept under outdoor conditions and uptake and translocation of the test substance was analyzed at different stages.
Sampling of Leaf Tissue was Carried Out at the Following Time Points:
1) 1 week after treatment
2) 3 weeks after treatment
Processing of Collected Samples for quantitative Determinations:
For the sampling done at time points 1, 2 and 3, the treated leaf blades were cut off and the non-absorbed test compound was washed from the treated leaf blades by 2 consecutive short washes with water. Subsequently plants were dissected further, resulting in the following parts: […]
Radioactivity was quantified in the different plant parts and in the washing solutions and was calculated as equivalents of the labeled compounds. […]
For the sampling time point 4, radioactivity is determined in the grains only and is calculated as equivalents of the labeled test compound. […]
In addition to the quantitative radioactivity measurements the distribution of radioactivity is determined by autoradiography in plants of the sampling time points 1 and 2.

For CC(=O)N[C@@H](CCP(C)(=O)[O-])C(=O)[O-].[Na+].[Na+] [N-acetyl PPT, dinatrium L-2-acetamido-4-methylphosphinato-butyrate-[3^14C, 4^14C]], which “foliar uptake in wheat tissue” value is on record?
The value was “good”.

And the “translocation of the test substance in the plant” value?
The value was “translocation through the phloem to the ears both in the main shoot and the tillers”.
